According to article PMC4950319, “Kinetic and structural characterization of amyloid‐β peptide hydrolysis by human angiotensin‐1‐converting enzyme” (The Febs Journal, 2016):

Biological target: T1, sACE (Homo sapiens, UniProt P12821)
T1 construct: made in house; host or cells: CHO cells; purified from cell lysate
Assay: Aβ(4–10)Y hydrolysis by sACE, fluorogenic assay
Format: biochemical
From the text: Fluorogenic substrates designed around the established N‐terminal Asp7‐Ser8 cleavage site of the full‐length Aβ(1–42) were used to develop a higher throughput assay. There are two variations of the short fluorogenic peptides: Aβ(4–10)Q (Abz‐FRHDSG(Q)‐EDDnp) which has an N‐terminal Abz donor and a C‐terminal EDDnp quencher group attached to an additional Gln residue. The second peptide, Aβ(4–10)Y (Abz‐FRHDSG‐(NT)) has a different quencher molecule, NT, which substitutes for the naturally occurring Tyr residue.
An alternative fluorogenic peptide, Abz‐FRHDSG‐(NT) (BIOPEP™ South Africa) was assayed, with 100 μL enzyme and 100 μL substrate (at a final enzyme concentration within 10% hydrolysis of total substrate; see Table 3) as above, in 96‐well plates. The samples were read at the 5 min time point on a Cary Eclipse spectrofluorimeter (Varian Inc.) at λex = 320 nm and λem = 420 nm. Kinetic constants, inner filter effect and standard curves were calculated as above.
Statistical analysis of the data was determined by Student's t test. Differences with P < 0.05 were considered statistically significant. Fractional error was calculated for the k cat/K m ratio with the following equation: ΔZ=ZΔa/a^2+Δb/b^2 where Z represents the mean k cat/K m and ΔZ represents the fractional error. The Δa represents the SEM of the mean k cat (a). Similarly, Δb represents the SEM of the mean K m (b).

[1] = fluorescence λex 320 nm, λem 420 nm, Hepes pH 7.5 buffer as for Aβ(4–10)Q, 5 min time point, enzyme 0.031 pmol, mean ± SEM, n = 3

T1 sequence (P12821 30-1306): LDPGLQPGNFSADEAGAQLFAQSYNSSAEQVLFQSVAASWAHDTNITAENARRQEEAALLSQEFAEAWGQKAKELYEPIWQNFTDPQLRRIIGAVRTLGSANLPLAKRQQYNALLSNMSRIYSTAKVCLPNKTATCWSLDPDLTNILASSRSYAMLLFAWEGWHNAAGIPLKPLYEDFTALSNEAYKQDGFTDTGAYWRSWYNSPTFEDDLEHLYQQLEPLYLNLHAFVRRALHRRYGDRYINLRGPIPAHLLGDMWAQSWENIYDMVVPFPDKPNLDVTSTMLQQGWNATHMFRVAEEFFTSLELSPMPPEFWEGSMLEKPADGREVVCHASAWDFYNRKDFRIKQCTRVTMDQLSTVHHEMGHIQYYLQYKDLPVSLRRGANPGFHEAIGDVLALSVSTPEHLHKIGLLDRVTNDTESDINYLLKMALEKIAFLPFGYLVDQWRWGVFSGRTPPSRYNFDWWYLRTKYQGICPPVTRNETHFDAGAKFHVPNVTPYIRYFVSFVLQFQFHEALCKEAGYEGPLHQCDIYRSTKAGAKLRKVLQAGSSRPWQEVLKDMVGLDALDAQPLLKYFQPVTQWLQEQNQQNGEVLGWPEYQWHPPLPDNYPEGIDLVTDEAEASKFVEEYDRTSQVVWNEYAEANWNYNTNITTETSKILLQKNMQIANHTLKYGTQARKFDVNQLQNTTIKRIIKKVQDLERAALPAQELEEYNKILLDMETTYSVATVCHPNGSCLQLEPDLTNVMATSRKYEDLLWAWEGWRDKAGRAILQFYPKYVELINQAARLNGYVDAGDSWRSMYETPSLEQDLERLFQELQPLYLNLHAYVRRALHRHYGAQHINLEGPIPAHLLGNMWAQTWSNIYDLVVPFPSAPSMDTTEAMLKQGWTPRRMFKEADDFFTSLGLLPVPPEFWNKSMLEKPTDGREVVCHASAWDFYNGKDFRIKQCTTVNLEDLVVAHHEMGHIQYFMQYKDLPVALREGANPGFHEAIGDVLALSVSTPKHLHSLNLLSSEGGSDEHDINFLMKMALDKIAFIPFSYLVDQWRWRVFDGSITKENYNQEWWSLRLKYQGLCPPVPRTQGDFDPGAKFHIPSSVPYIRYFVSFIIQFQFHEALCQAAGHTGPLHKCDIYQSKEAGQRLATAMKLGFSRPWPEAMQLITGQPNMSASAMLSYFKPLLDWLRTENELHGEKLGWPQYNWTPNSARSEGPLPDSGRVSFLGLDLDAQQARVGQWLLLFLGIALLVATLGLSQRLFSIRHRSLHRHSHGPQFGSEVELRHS

What does the source list for “Abz‐FRHDSG‐(NT) [Aβ(4–10)Y, fluorogenic Aβ(4–10) peptide with NT quencher substituting for Tyr]”?
K m [1]: 12.60 ± 2.48 µM; V max [1]: 0.90 ± 0.18; k cat [1]: 28.70 ± 5.81 s⁻¹; k cat/K m (fluorescence λex 320 nm, λem 420 nm, Hepes pH 7.5 buffer as for Aβ(4–10)Q, 5 min time point, enzyme 0.031 pmol, mean ± fractional error of the ratio, n = 3): 22.67 ± 6.40 M^−1·s^−1 × 10^5; catalytic efficiency of sACE, fold greater than Ndom (sACE versus Ndom, P < 0.05): 2 fold
